According to patent US20080070265A1, “PEPTIDE-BASED IMMUNIZATION THERAPY FOR TREATMENT OF ATHEROSCLEROSIS” (CARDIO VAX, priority 2003, published 2008):

Test system: apoE−/− mice
Test: Immunization of apoE−/− mice with peptide in Freund's adjuvant; size of atherosclerotic lesions in the proximal aorta
Assay type: in vivo
Details: for effect of immunization on atherosclerosis: experimental animals (apoE−/− mice)
Experimental: It was hypothesized that the induction of protective immunity could depend on presentation of peptides derived from apoB100 and modified by adduct formation during oxidative modification of the LDL particle. Further, it was hypothesized that such peptides must have a sequence that (i) contains side chains susceptible to adduct formation, and (ii) permits them to bind to MHC class II molecules. The apoB100 sequence was analyzed to identify such motifs. […] A peptide containing this sequence was synthesized and used for immunization of apoE−/− mice. The effect on atherosclerosis was quantified by measuring the size of atherosclerotic lesions after 12 weeks.
8 week old female apoE−/− mice (B6, Apoe−/−, M&B, Ry, Denmark) were immunized with 100 μg of peptide SEQ. ID. NO. 1, and SEQ. ID. NO. 2, respectively, emulsified with Freund's complete adjuvant to a total volume of 50 μl. Mice were boosted after 2 and 4 weeks with 50 μg of peptide in Freund's incomplete adjuvant. A third group of mice consisting of age-matched male mice was injected according to the same scheme with phosphate-buffered saline (PBS) in adjuvant. 4 weeks after the last boost, mice were anesthetized with carbon dioxide and killed by exsanguination after cardiac puncture. After vascular perfusion with sterile RNase-free PBS, the heart and proximal aorta were removed, embedded in OCT compound, frozen and cryosectioned.
The size of atherosclerotic lesions in the proximal aorta was quantified by using Leica Qwin software (for details of the method, see Nicoletti et al., J. Clin. Invest. (1998)) Results were expressed as μm^2 average lesion area per cross-section, as well as relative lesion area, i.e., lesion area (μm^2) divided by total aortic cross-section area (μm^2). The Mann-Whitney U test used for comparisons between means.

| Substance | effect of immunization on atherosclerosis | lesions larger than PBS controls (female apoE−/− mice, same immunization scheme, proximal aorta, p<0.05) | lesion size versus control mice injected with PBS/adjuvant alone (apoE−/− mice, FIG. 1) | lesion size versus mice immunized with peptide SEQ. ID. NO. 2 (apoE−/− mice, FIG. 1) | reduction in lesion size compared to PBS controls (female apoE−/− mice, 100 μg peptide in Freund's complete adjuvant, boosts of 50 μg after 2 and 4 weeks, proximal aorta, p<0.05) | reduction in lesion size compared with peptide SEQ. ID. NO. 2 immunized mice (female apoE−/− mice, same immunization scheme, proximal aorta, p<0.001) |
| --- | --- | --- | --- | --- | --- | --- |
| NH2-YSKVHNGSEILFSYFQDLVIT-COOH (H-YSKVHNGSEILFSYFQDLVIT-OH) [SEQ. ID. NO. 2] | aggravates atherosclerosis | 36% |  |  |  |  |
| NH2-PTVMDFRKFSRNYQLYKSVSLPS-COOH (H-PTVMDFRKFSRNYQLYKSVSLPS-OH) [SEQ. ID. NO. 1, amino acids 625-647 of the human apoB100 protein] | inhibition of atherosclerosis |  | significantly smaller lesions | significantly smaller | 42% | 62% |
